Test results as given in PMC11202169, “A Novel Fluorescence-Based Microplate Assay for High-Throughput Screening of hSULT1As Inhibitors” (Biosensors, 2024).
Where two headings read alike, the source gives them in different places.

Experiments:
Assay type in all cases: biochemical
hSULT1A1 = biological target: T1, hSULT1A1 (Homo sapiens, UniProt P50225); experiment: Fluorescence-based microplate inhibition assay, hSULT1A1-catalyzed HN-241 4-O-sulfation; conditions: for activity at 1 µM: read-out: Residue activity (%) hSULT1A1; for IC50: hSULT1A1-catalyzed HN-241 4-O-sulfation;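 as to all read-outs here: reaction started with 200 µM PAPS at 37 °C, fluorescence read continuously (Ex 350 nm, Em 450 nm), activity expressed relative to DMSO-only control without inhibitor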
T1 construct: 6-histidine tag (N); TEV site (N); made in house; host or cells: Escherichia coli BL21 (DE3), pET29a(+)
T1 sequence (P50225 whole entry): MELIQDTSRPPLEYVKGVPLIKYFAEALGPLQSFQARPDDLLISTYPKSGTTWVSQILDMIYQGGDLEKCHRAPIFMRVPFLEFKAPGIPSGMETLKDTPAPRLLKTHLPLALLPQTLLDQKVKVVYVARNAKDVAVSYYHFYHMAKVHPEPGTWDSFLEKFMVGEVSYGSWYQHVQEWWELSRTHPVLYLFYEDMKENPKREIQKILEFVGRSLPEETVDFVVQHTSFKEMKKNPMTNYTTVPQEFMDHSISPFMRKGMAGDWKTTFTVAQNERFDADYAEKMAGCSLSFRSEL

hSULT1A2 = biological target: T2, hSULT1A2 (Homo sapiens, UniProt P50226); experiment: Fluorescence-based microplate inhibition assay, hSULT1A2-catalyzed HN-241 4-O-sulfation; conditions: for remaining activity at 10 µM: 0.25 h, read-out: Residue activity (%) hSULT1A2
T2 construct: 6-histidine tag (N); TEV site (N); made in house; host or cells: Escherichia coli BL21 (DE3), pET29a(+)
T2 sequence (P50226 whole entry): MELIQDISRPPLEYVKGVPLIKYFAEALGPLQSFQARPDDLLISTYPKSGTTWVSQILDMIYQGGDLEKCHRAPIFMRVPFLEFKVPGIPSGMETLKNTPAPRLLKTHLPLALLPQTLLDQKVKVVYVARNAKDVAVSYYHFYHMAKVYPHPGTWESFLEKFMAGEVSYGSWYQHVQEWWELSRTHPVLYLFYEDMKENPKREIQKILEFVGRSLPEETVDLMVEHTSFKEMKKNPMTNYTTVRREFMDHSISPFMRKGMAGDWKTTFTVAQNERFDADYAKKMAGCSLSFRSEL

hSULT1A3 = biological target: T3, hSULT1A3 (Homo sapiens, UniProt P0DMM9); experiment: Fluorescence-based microplate inhibition assay, hSULT1A3-catalyzed HN-241 4-O-sulfation; conditions: for activity at 10 µM: read-out: Residue activity (%) hSULT1A3; for IC50: hSULT1A3-catalyzed HN-241 4-O-sulfation
T3 construct: 6-histidine tag (N); TEV site (N); made in house; host or cells: Escherichia coli BL21 (DE3), pET29a(+)
T3 sequence (P0DMM9 whole entry): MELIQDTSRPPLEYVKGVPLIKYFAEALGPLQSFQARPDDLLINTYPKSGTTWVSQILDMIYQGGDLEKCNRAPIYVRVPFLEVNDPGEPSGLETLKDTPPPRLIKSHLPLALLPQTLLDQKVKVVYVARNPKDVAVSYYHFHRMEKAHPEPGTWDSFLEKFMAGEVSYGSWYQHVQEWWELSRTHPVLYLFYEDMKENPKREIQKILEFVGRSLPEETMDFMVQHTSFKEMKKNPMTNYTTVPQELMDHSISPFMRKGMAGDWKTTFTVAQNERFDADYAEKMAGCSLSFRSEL

[1] = test compound 1 μM, HN-241 1 μM, 15 min
[2] = test compound 10 μM, HN-241 5 μM, 15 min
[3] = test compound 10 μM, HN-241 10 μM, 15 min

Row | Compound | activity at 1 µM (hSULT1A1; [1]) | remaining activity at 10 µM (hSULT1A2; [2]) | activity at 10 µM (hSULT1A3; [3]) | Residue activity (%) hSULT1A1 (hSULT1A1; [1]) | Residue activity (%) hSULT1A2 (hSULT1A2; [2]) | Residue activity (%) hSULT1A3 (hSULT1A3; [3]) | further results
1 | Myricitrin |  |  |  | 96.68% | 84.45% | 110.49% | 
2 | Gomisin A |  |  |  | 129.03% | 97.44% | 122.78% | 
3 | COc1ccc(-c2oc3c(CC=C(C)C)c(O[C@@H]4O[C@H](CO)[C@@H](O)[C@H](O)[C@H]4O)cc(O)c3c(=O)c2O)cc1 [Icariside I] |  |  |  | 91.81% | 103.62% | 104.97% | 
4 | O=c1cc(-c2ccccc2)oc2ccc(O)c(O)c12 [5,6-Dihydroxy-2-phenylchromen-4-one] |  |  |  | 18.14% | 8.07% | 68.42% | 
5 | C/C1=C\CC(C)(C)/C=C/C(=O)/C(C)=C/CC1 [Zerumbone] | 102% | 113% | 108% |  |  |  | 
6 | COc1cc2c(c(OC)c1OC)C(=O)c1c(cc(C)c(O)c1OC)C2=O [Chrysoobtusin] | 1.84% | 0.09% | 5.28% |  |  |  | IC50 (hSULT1A3): 1.52 ± 0.0791 µM
7 | O=C1c2cccc(O)c2C(=O)c2c(O)cc(CO)cc21 [Aloeemodin] | 0.21% | 0% | 61.3% |  |  |  | IC50 (hSULT1A2; hSULT1A2-catalyzed HN-241 4-O-sulfation): 0.118 ± 0.0072 µM
8 | COc1ccc(-c2cc(=O)c3c(O)cc(O)c(-c4cc(-c5cc(=O)c6c(O)cc(OC)cc6o5)ccc4OC)c3o2)cc1 [Sciadopitysin] |  |  |  | 27.69% | 2.03% | 62.24% | 
9 | COc1cc([C@@H]2c3cc4c(cc3[C@H](O)[C@H]3COC(=O)[C@H]23)OCO4)cc(OC)c1OC [Podophyllotoxin] |  |  |  |  |  |  | activity at 1 µM (hSULT1A1): 110%; remaining activity at 10 µM (hSULT1A2): 88.9%; activity at 10 µM (hSULT1A3): 111%
10 | C=C(CCC=C(C)C)[C@H]1CC[C@]2(C)[C@@H]1[C@H](O)C[C@@H]1[C@@]3(C)CC[C@H](O)C(C)(C)[C@@H]3[C@@H](O[C@@H]3O[C@H](CO)[C@@H](O)[C@H](O)[C@H]3O[C@@H]3O[C@@H](C)[C@H](O)[C@@H](O)[C@H]3O)C[C@]12C [Ginsenoside Rg6] |  |  |  | 100.32% | 103.59% | 124.68% | 
11 | O=c1cc(-c2ccccc2)oc2cc(O)c(O)c(O)c12 [Baicalein] |  |  |  |  |  |  | IC50 (hSULT1A1): 0.0452 ± 0.00391 µM; IC50 (hSULT1A3): 6.32 ± 0.195 µM
12 | COC[C@]12CN(C)[C@@H]3[C@@H]4[C@H](OC)[C@H]1[C@@]3([C@@H](OC)C[C@H]2O)[C@@H]1C[C@@]2(O)[C@H](OC(=O)c3ccccc3)[C@@H]1[C@]4(OC(C)=O)[C@@H](O)[C@@H]2OC [Mesaconitine] |  |  |  |  | 114.51% | 110.31% | 
13 | COc1ccc(/C=C/C(=O)c2ccccc2)cc1 [4-Methoxychalcone] |  |  |  | 78.44% | 75.95% |  | 
14 | CC(C)=CCC[C@](C)(O)[C@H]1CC[C@]2(C)[C@@H]1[C@H](O)C[C@@H]1[C@@]3(C)CC[C@H](O)C(C)(C)[C@@H]3[C@@H](O[C@@H]3O[C@H](CO)[C@@H](O)[C@H](O)[C@H]3O[C@@H]3OC[C@@H](O)[C@H](O)[C@H]3O)C[C@]12C [Notoginsenoside R2] |  |  |  | 105.59% | 108.58% |  | 

More lines, main results first:

Row | activity at 1 µM (hSULT1A1; [1]) | remaining activity at 10 µM (hSULT1A2; [2]) | activity at 10 µM (hSULT1A3; [3]) | Compound | Residue activity (%) hSULT1A1 (hSULT1A1; [1]) | Residue activity (%) hSULT1A2 (hSULT1A2; [2]) | Residue activity (%) hSULT1A3 (hSULT1A3; [3]) | further results
15 | 128% | 98.6% | 119% | C[C@@H]1[C@H]2[C@H](O[C@@H]3O[C@H](CO)[C@@H](O)[C@H](O)[C@H]3O)OC=C(C(=O)O)[C@H]2C[C@@H]1O [Loganic acid] |  |  |  | 
16 | 109% | 109% | 108% | C/C=C(/C)C(=O)O[C@H]1c2cc(OC)c(OC)c(OC)c2-c2c(cc3c(c2OC)OCO3)C[C@H](C)[C@]1(C)O [Schisantherin B] |  |  |  | 
17 | 85.5% | 85.1% | 105% | COc1ccc(-c2oc3c(CC=C(C)C)c(O[C@@H]4O[C@H](CO)[C@@H](O)[C@H](O)[C@H]4O)cc(O)c3c(=O)c2O[C@@H]2O[C@@H](C)[C@H](O)[C@@H](O)[C@H]2O)cc1 [Icariin] |  |  |  | 
18 | 0% | 0.21% | 30.9% | COc1c(/C=C/C(=O)c2ccc(O)c(CC=C(C)C)c2)ccc(O)c1O [Licochalcone D] |  |  |  | IC50 (hSULT1A1): 0.00537 ± 0.00018 µM
19 | 106% | 111% | 121% | C=C(C)[C@@H]1CC[C@]2(C(=O)O)CC[C@]3(C)[C@H](CC[C@@H]4[C@@]5(C)CC[C@@H](O)C(C)(C)[C@@H]5CC[C@]43C)[C@@H]12 [Epibetulinic acid] |  |  |  | 
